Source: patent US5824668A, “Formulation for administration of steroid compounds” (priority 1996, dated 1998)
Entries after “also recorded” stand apart in the source; their conditions may differ.

Key:
rats and mice = settings: cited from earlier work
[1] = test system: genetically obese and diabetic mice; settings: cited from earlier work; for effectiveness relative to DHEA in preventing development of diabetes: C57BL/KsJ-db/db diabetic mice; for blood sugar / effect on the pancreas (granulation of islet cells) / plasma insulin concentrations: Coleman 1984
[2] = test system: severely diabetic mammals; settings: oral; cited from earlier work
[3] = cited from earlier work; for conversion in serum: normal and obese subjects, unpublished data; for oxidation at C-3 position to form etiocholandione: oral or parenteral; for recovery in the urine: parenteral routes
genetically obese mice = settings: cited from earlier work; for anti-obesity effect / development of obesity / weight reduction after obesity: supplied in the diet, diabetic genetically obese mice
female patients = settings: cited from earlier work
obese subjects = settings: oral, cited from earlier work
[4] = Dissolution of 5β steroid in water or in hydroxypropyl-β-cyclodextrin solution (Examples I-VII); assay type: physicochemical
Description: 12 milligrams (mg) of Etiocholandione (Steraloids, Inc. New Hampshire) was stirred and shaken with 0.5 ml of water in a test tube.
A 50% solution of hydroxypropyl-β-cyclodextrin was prepared as follows. 5 grams of pyrogen free hydroxypropyl-β-cyclodextrin (sold under the trade name Encapsin, Amaizo, Inc., Hammond, Ind., USA) was weighed on an analytical scale and placed in a graduated cylinder. Water was added with shaking until the volume reached 10 ml.
0.5 ml of the 50% solution of hydroxypropyl-β-cyclodextrin was added to the 0.5 ml of water containing 12 mg of Etiocholandione with additional shaking.
The previous experiment was repeated using a 50% solution of hydroxypropyl-β-cyclodextrin prepared as in Example 1. 50 mg of Etiocholandione was weighed and placed in a test tube. 2 ml of the 50% solution of hydroxypropyl-β-cyclodextrin was added to the test tube with shaking.
4 grams of hydroxypropyl-β-cyclodextrin was dissolved in 7 ml of distilled water to a total volume of 10 ml. Each ml of stock solution contained 0.4 g of solution hydroxypropyl-β-cyclodextrin. 20 mg of 3-β-hydroxy androstan-17-one (β-etiocholanolone) was shaken with 1 ml of the freshly prepared stock solution.
The same experiment as in example III was performed except that 40 mg of β-etiocholanolone was added to the stock solution of hydroxypropyl-β-cyclodextrin.
The same experiment as in example III was performed except that 20 mg of Etiocholandione was added to the stock solution of hydroxypropyl-β-cyclodextrin.
The same experiment as in example V was performed except that 40 mg of Etiocholandione was added to the stock solution of hydroxypropyl-β-cyclodextrin.
The same experiment as in Example V was performed except 80 mg or 250 mg ED was added to the stock solution.

[5] = Optical density of ET and ED dissolved in hydroxypropyl-β-cyclodextrin solutions; assay type: physicochemical
Description: The optical density (OD) of the ET and ED dissolved in hydroxypropyl-β-cyclodextrin solutions was determined at 400 NM against a blank control containing water and set at an OD of 0.0.

Prader-Willi Syndrome = settings: cited from earlier work
[6] = cited from earlier work; for influence on stabilization of mitomycin-C: acidic aqueous media, pH ranges studied
[7] = cited from earlier work; for pyrogenic reaction: intramuscular injection
auto-immune diseases = settings: cited from earlier work
aplastic anemia patients = settings: cited from earlier work; for patients with hematologic responses lasting longer than six months: of 43 patients treated with either α- and/or β ET, im
[8] = dissolved solution in hydroxypropyl-β-cyclodextrin, 400 NM, against water blank

C[C@]12CC[C@H](O)CC1=CC[C@@H]1[C@@H]2CC[C@]2(C)C(=O)CC[C@@H]12 [DHEA, 3-β-hydroxy-androst-5-en-17-one]
control of diabetes and obesity (rats and mice): effective in controlling diabetes and obesity | development of diabetes ([1]; genetically obese and diabetic mice): markedly reduced the development of diabetes | glucose tolerance [2]: improved glucose tolerance | hyperglycemia [2]: restored hyperglycemia to normal levels | metabolism ([3]; humans): metabolized to testosterone (17-β-hydroxy-androst-4-en-3-one) and estradiol | rate of weight gain (genetically obese mice; genetically obese mice, variety of routes): decreased the rate of weight gain | acne (female patients): severe acne

C[C@]12CCC(=O)C[C@H]1CC[C@@H]1[C@@H]2CC[C@]2(C)C(=O)CC[C@@H]12 [ED]
mean fat loss of the initial body fat content (obese subjects; 10-week period): about 5% | weight and body fat loss vs placebo (obese subjects; 14 subjects): lost significantly more weight and body fat | fat loss (obese subjects; four grams per day): significant fat loss | mean weight loss (obese subjects; four grams per day): 2.8±5.5 kilograms | mean weight loss normalized to body fat (obese subjects; four grams per day): 0.5±0.91 kilograms per week per 100 kilograms of body fat | subjective or objective side effects (obese subjects): no significant subjective or objective side effects | dissolution in water ([4]; 12 mg in 0.5 ml of water, after 5 minutes): Appreciable quantities of compound remained out of solution | appearance of solution ([4]; 12 mg in 1 ml of 25% hydroxypropyl-β-cyclodextrin): A clear solution was obtained | time to complete dissolution ([4]; 20 mg in 1 ml stock solution (0.4 g/ml hydroxypropyl-β-cyclodextrin), room temperature, occasional shaking): ≤ 6 h | time to complete dissolution ([4]; 40 mg in 1 ml stock solution (0.4 g/ml hydroxypropyl-β-cyclodextrin)): ≤ 24 h | appearance of solution ([4]; 50 mg in 2 ml of 50% hydroxypropyl-β-cyclodextrin): clear solution with no accumulation of crystals | time to dissolution ([4]; 50 mg in 2 ml of 50% hydroxypropyl-β-cyclodextrin, with shaking): Within one minute | complete dissolution ([4]; 80 mg added to stock solution (0.4 g/ml hydroxypropyl-β-cyclodextrin)): In neither case did the ED completely dissolve | complete dissolution ([4]; 250 mg added to stock solution (0.4 g/ml hydroxypropyl-β-cyclodextrin)): In neither case did the ED completely dissolve | optical density (OD) [5, 8]: 0.12 | optical density (OD) ([5]; hydroxypropyl-β-cyclodextrin solution containing 80 mg of ED, 499 NM): 1.2 | serum levels of α ET after administering ED ([3]; in vivo): high levels of α ET can be achieved in the serum | conversion in serum [3]: quickly converted almost exclusively to α ET

C[C@]12CC[C@@H](O)C[C@@H]1CC[C@@H]1[C@@H]2CC[C@]2(C)C(=O)CC[C@@H]12 [androsterone, reference compound]
effectiveness relative to DHEA in preventing development of diabetes [1]: but not androsterone or epiandrosterone

C[C@]12CC[C@H](O)C[C@@H]1CC[C@@H]1[C@@H]2CC[C@]2(C)C(=O)CC[C@@H]12 [epiandrosterone, reference compound]
effectiveness relative to DHEA in preventing development of diabetes [1]: but not androsterone or epiandrosterone

C[C@]12CC[C@@H](O)C[C@H]1CC[C@@H]1[C@@H]2CC[C@]2(C)C(=O)CC[C@@H]12 [etiocholanolone]
weight change in treated individuals (Prader-Willi Syndrome): either weight loss or a decrease in the rate of weight gain

COC[C@H]1O[C@@H]2O[C@H]3[C@H](O)[C@@H](OC)[C@@H](O[C@H]4[C@H](O)[C@@H](OC)[C@@H](O[C@H]5[C@H](O)[C@@H](OC)[C@@H](O[C@H]6[C@H](O)[C@@H](OC)[C@@H](O[C@H]7[C@H](O)[C@@H](OC)[C@@H](O[C@H]8[C@H](O)[C@@H](OC)[C@@H](O[C@H]1[C@H](O)[C@H]2OC)O[C@@H]8COC)O[C@@H]7COC)O[C@@H]6COC)O[C@@H]5COC)O[C@@H]4COC)O[C@@H]3COC [heptakis-(2,6,-di-O-methyl)-β- cyclodextrin]
influence on stabilization of mitomycin-C [6]: no influence on stabilization of mitomycin-C pH degradation

C[C@]12C=CC(=O)C=C1CC[C@@H]1[C@@H]2[C@@H](O)C[C@@]2(C)[C@H]1CC[C@]2(O)C(=O)CO [prednisolone, reference compound]
suppression of local irritation ([7]; minimal doses of 10 mg, with β-ET): sufficient to suppress any local irritation

C[C@]12C=CC(=O)C=C1CC[C@@H]1[C@@H]2C(=O)C[C@@]2(C)[C@H]1CC[C@]2(O)C(=O)CO [prednisone]
side effects (auto-immune diseases; in vivo): fluid retention and dramatic loss of bone or osteoporosis | symptoms of auto-immune diseases (auto-immune diseases; ulcerative colitis, Chrone's disease, rheumatoid arthritis): effective in reducing the symptoms

C[C@]12CC[C@@H](O)C[C@H]1CC[C@@H]1[C@@H]2CC[C@]2(C)C(=O)CC[C@@H]12 [α ET]
effectiveness relative to DHEA in preventing development of diabetes [1]: four times more effective than DHEA | blood sugar [1]: reduce blood sugar | effect on the pancreas (granulation of islet cells) [1]: protective effect on the pancreas | plasma insulin concentrations [1]: increased plasma insulin concentrations | pyrogenic reaction [7]: acute pyrogenic reactions; also recorded: pyrogenic reaction and notable patient discomfort | oxidation at C3 position ([3]; IV, human subjects, isotopic ratio studies): rapidly oxidized and re-reduced | urinary excretion ([3]; normal individuals, endogenous): 3-5 mg per day | oxidation at C-3 position to form etiocholandione [3]: rapidly oxidized at the C-3 position | recovery in the urine [3]: almost exclusively α ET conjugates | anti-obesity effect (genetically obese mice): anti-obesity properties | development of obesity (genetically obese mice): can prevent and arrest the development of obesity | weight reduction after obesity (genetically obese mice): facilitate weight reduction after obesity | patients with hematologic responses lasting longer than six months (aplastic anemia patients): 17

OC[C@H]1O[C@@H]2O[C@H]3[C@H](O)[C@@H](O)[C@@H](O[C@H]4[C@H](O)[C@@H](O)[C@@H](O[C@H]5[C@H](O)[C@@H](O)[C@@H](O[C@H]6[C@H](O)[C@@H](O)[C@@H](O[C@H]7[C@H](O)[C@@H](O)[C@@H](O[C@H]1[C@H](O)[C@H]2O)O[C@@H]7CO)O[C@@H]6CO)O[C@@H]5CO)O[C@@H]4CO)O[C@@H]3CO [α-cyclodextrin]
influence on stabilization of mitomycin-C [6]: no influence on stabilization of mitomycin-C pH degradation

C[C@]12CC[C@H](O)C[C@H]1CC[C@@H]1[C@@H]2CC[C@]2(C)C(=O)CC[C@@H]12 [β ET, 3-β-hydroxy androstan-17-one]
effectiveness relative to DHEA in preventing development of diabetes [1]: four times more effective than DHEA | blood sugar [1]: reduce blood sugar | effect on the pancreas (granulation of islet cells) [1]: protective effect on the pancreas | plasma insulin concentrations [1]: increased plasma insulin concentrations | optical density (OD) [5, 8]: 0.12 | pyrogenic reaction [7]: little pyrogenic effect | conversion in serum [3]: quickly converted almost exclusively to α ET | oxidation at C-3 position to form etiocholandione [3]: rapidly oxidized at the C-3 position | recovery in the urine [3]: almost exclusively α ET conjugates | anti-obesity effect (genetically obese mice): anti-obesity properties | development of obesity (genetically obese mice): can prevent and arrest the development of obesity | weight reduction after obesity (genetically obese mice): facilitate weight reduction after obesity | patients with hematologic responses lasting longer than six months (aplastic anemia patients): 17 | hematologic recovery in non-responders to α ET (aplastic anemia patients; treated with β-ET): three patients who did not respond to α ET had a hematologic recovery

OC[C@H]1O[C@@H]2O[C@H]3[C@H](O)[C@@H](O)[C@@H](O[C@H]4[C@H](O)[C@@H](O)[C@@H](O[C@H]5[C@H](O)[C@@H](O)[C@@H](O[C@H]6[C@H](O)[C@@H](O)[C@@H](O[C@H]7[C@H](O)[C@@H](O)[C@@H](O[C@H]8[C@H](O)[C@@H](O)[C@@H](O[C@H]1[C@H](O)[C@H]2O)O[C@@H]8CO)O[C@@H]7CO)O[C@@H]6CO)O[C@@H]5CO)O[C@@H]4CO)O[C@@H]3CO [β-cyclodextrin]
influence on stabilization of mitomycin-C [6]: no influence on stabilization of mitomycin-C pH degradation

OC[C@H]1O[C@@H]2O[C@H]3[C@H](O)[C@@H](O)[C@@H](O[C@H]4[C@H](O)[C@@H](O)[C@@H](O[C@H]5[C@H](O)[C@@H](O)[C@@H](O[C@H]6[C@H](O)[C@@H](O)[C@@H](O[C@H]7[C@H](O)[C@@H](O)[C@@H](O[C@H]8[C@H](O)[C@@H](O)[C@@H](O[C@H]9[C@H](O)[C@@H](O)[C@@H](O[C@H]1[C@H](O)[C@H]2O)O[C@@H]9CO)O[C@@H]8CO)O[C@@H]7CO)O[C@@H]6CO)O[C@@H]5CO)O[C@@H]4CO)O[C@@H]3CO [γ-cyclodextrin]
stabilizing effect on mitomycin ([6]; acidic media at pH above 1): measurable stabilizing effect on mitomycin

dimethyl-β- cyclodextrin
influence on stabilization of mitomycin-C [6]: no influence on stabilization of mitomycin-C pH degradation
